Source: US9340506B2, “Acetamide derivatives as glucokinase activators, their process and medicinal applications” (ADVINUS THERAPEUTICS LIMITED, priority 2007, dated 2016)
pEC50: −log10 of the molar value.

Tests used:
[1] = biological target: purified human recombinant GK (Homo sapiens (Human), UniProt P35557); experiment: Glucokinase activity assay (coupled enzymatic, G6PD/NADH absorbance at 340 nm); type: biochemical; details: for pEC50: EC50 of % change in S0.5 of glucokinase for glucose, sigmoidal fit, read-out: EC50 (with respect to % ΔS0.5); for Emax: Emax of % change in S0.5 of glucokinase for glucose, vehicle S0.5 = 0%, 0 mM glucose = 100%, read-out: % Emax (with respect to % ΔS0.5)
Text: The glucokinase (GK) assay is a coupled enzymatic assay. GK catalyzes the first step of glycolysis, the conversion of glucose to glucose-6-phosphate (G6P) in the presence of ATP. G6P in turn is converted by glucose-6-phosphate dehydrogenase (G6PD) to 6-phosphogluconate, a process that requires NAD, resulting in NADH formation. Since the GK-catalyzed step is the rate-limiting step of this coupled enzymatic process, the rate of accumulation of 6-phosphogluconate and NADH is directly proportional to the rate of glucose phosphorylation by GK. The rate of the GK-catalyzed reaction can therefore be measured by monitoring the increase in NADH absorbance at 340 nm.
The assay is carried out according to the protocol outlined in Hariharan et al (1997), Diabetes 46: 11-16. Briefly, the test compounds are incubated in a reaction mix containing 25 mM HEPES (pH 7.2), 10 mM MgCl2, 100 mM KCl, 5 mM ATP, 2 mM DTT, 0.5 mM NAD, 1 U/mL Leuconostoc mesenteroides G6PD, 0.3 U/mL of purified human recombinant GK, and different concentrations of glucose. Enzymatic activity is calculated from the initial reaction velocity, measured from the change in NADH absorbance as a function of time.
Compounds described in formula (I), in concentration ranges from 1.0 nM to 500 μM, are tested in the purified human recombinant glucokinase assay described above.
A compound is considered to be a glucokinase activator if it, in its testable range of concentrations, yields a higher rate of glucose phosphorylation than in its absence at a particular glucose concentration, for example at 5 mM glucose.
Compounds of general formula (I) are tested in the in vitro GK enzymatic assay to monitor dose-dependent effect on glucokinase activation (in kinetic mode), as described above, at various glucose concentrations. The S0.5 of glucokinase for glucose at different concentration of each compound of interest is calculated from the following modified version of the Michaelis-Menten equation, V=Vmax [S]^n/(S0.5^n+[S]^n), where [S] is the glucose concentration and n is the Hill coefficient (taken as 1.7 to account for the sigoidal kinetics of glucokinase with respect to glucose). The S0.5 is plotted against the log of the compound concentration. The change in the S0.5 of glucokinase (ΔS0.5) for glucose is calculated by subtracting the S0.5 at each concentration of the compound from the S0.5 in the vehicle control. The ΔS0.5 is then normalized to a percent scale, where the S0.5 in the vehicle control is set to 0% and 0 mM glucose is set to 100%. The % ΔS0.5 is then plotted against the log of the compound concentration. The EC50 and Emax of % change in S0.5 is obtained from the sigoidal fit of the data. Detailed protocol has been described in our copending application no. 409/CHE/2007 which is incorporated herein by reference. Characterization data of some representative glucokinase activators of the present disclosure, which are illustrative but not limiting, are given in table I below.

[2] = tested on: primary rat hepatocytes; experiment: Glycogen synthesis in primary rat hepatocytes; type: cell-based; details: Hepatocyte, 10 μM concentration, primary hepatocytes from male Wistar rats, D-[U14C]-glucose, 3 hours, read-out: Glycogen synthesis, fold increase over DMSO control
Protocol: The glycogen deposition assay was carried out with few modifications in the original protocol as described in “Biochem J. 1990 Feb. 15; 266(1): 91-102”. In brief, primary hepatocytes were collected from male Wistar rats, and were seeded in a 48-well plate at a density of 150,000 cells/well in Minimal Essential Medium (MEM) containing 10% foetal calf serum (FCS) 100 nM insulin and 10 nM dexamethasone. followed by incubation for 4 hours at 37° C. The medium was replaced with fresh MEM containing 10% FCS and 10 nM dexamethasone and the cells were further incubated for 16 hours at 37° C. Following day, the medium was replaced with fresh MEM (serum-free) containing 2 μCi/ml of D-[U^14C]-glucose in the presence of the test compound. Hepatocytes were incubated for 3 hours at 37° C. followed by washing with 150 mM NaCl. Cells were lysed with 0.1 N NaOH, and the lysate was precipitated with 80% w/v trichloroacetic acid (TCA). Cell debris was pelleted by centrifugation, the supernatant was removed, and the glycogen was precipitated with 66% ethanol followed by drying overnight. Samples were dissolved in MiliQ water and transferred to 96 well reading plate, 100 μL scintillant was added per well and the plate was read in scintillation counter (MicroBeta Trilux, Perkin Elmer). Data was expressed as fold increase in glycogen synthesis over DMSO control (untreated hepatocytes).

[3] = animal efficacy models; PSN-GK1 at higher dose; cited from earlier work

Chain of purified human recombinant GK (P35557 whole entry): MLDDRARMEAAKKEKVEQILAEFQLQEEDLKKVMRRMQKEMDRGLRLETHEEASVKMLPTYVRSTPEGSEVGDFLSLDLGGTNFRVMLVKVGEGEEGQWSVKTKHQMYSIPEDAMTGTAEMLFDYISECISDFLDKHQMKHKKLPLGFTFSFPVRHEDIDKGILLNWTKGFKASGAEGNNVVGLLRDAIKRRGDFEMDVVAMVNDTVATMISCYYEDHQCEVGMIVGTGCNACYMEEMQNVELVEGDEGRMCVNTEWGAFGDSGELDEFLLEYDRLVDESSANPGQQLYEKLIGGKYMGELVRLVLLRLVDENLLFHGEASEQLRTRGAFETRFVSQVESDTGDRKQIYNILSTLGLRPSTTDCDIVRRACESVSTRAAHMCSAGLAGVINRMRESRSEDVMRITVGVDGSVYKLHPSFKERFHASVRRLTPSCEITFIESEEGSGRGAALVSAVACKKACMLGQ

Molecule	pEC50 [1]	Emax [1] [%]	fold induction at 10 µM [2]	Hypoglycemia in animal studies [3]
Cc1cc(Oc2cnc(NC(=O)C(OC3CCOCC3)c3ccc(S(=O)(=O)C4CC4)cc3)s2)ccc1C(=O)O (single isomer, unassigned; (+)) [Example G1A, (+)4-[2-[[2-(4-cyclopropylsulfonylphenyl)-2-tetrahydropyran-4-yloxy-acetyl]amino]thiazol-5-yl]oxy-2-methyl-benzoic acid]	7.06	97	> 2.5	
O=C(O)c1cccc(Oc2cnc(NC(=O)C(OC3CCOCC3)c3ccc(S(=O)(=O)C4CC4)cc3)s2)c1 (single isomer, unassigned; (+)) [Example G8A, (+)3-[2-[[2-(4-cyclopropylsulfonylphenyl)-2-tetrahydropyran-4-yloxy-acetyl]amino]thiazol-5-yl]oxybenzoic acid]	6.72		> 2.5	
COc1cc(Oc2cnc(NC(=O)C(OC3CCOCC3)c3ccc(S(=O)(=O)C4CC4)cc3)s2)ccc1C(=O)O (single isomer, unassigned; (+)) [Example G9A, (+)4-[2-[[2-(4-cyclopropylsulfonylphenyl)-2-tetrahydropyran-4-yloxy-acetyl]amino]thiazol-5-yl]oxy-2-methoxy-benzoic acid]	6.57	92	> 2.5	
Cc1ccc(Oc2cnc(NC(=O)C(OC3CCOCC3)c3ccc(S(=O)(=O)C4CC4)cc3)s2)cc1C(=O)O (single isomer, unassigned; (+)) [Example G10A, (+)5-[2-[[2-(4-cyclopropylsulfonylphenyl)-2-tetrahydropyran-4-yloxy-acetyl]amino]thiazol-5-yl]oxy-2-methyl-benzoic acid]	6.64	93	> 2.5	
O=C(O)c1cc(Oc2cnc(NC(=O)C(OC3CCOCC3)c3ccc(S(=O)(=O)C4CC4)cc3)s2)ccc1F (single isomer, unassigned; (+)) [Example G16A, (+)5-[2-[[2-(4-cyclopropylsulfonylphenyl)-2-tetrahydropyran-4-yloxy-acetyl]amino]thiazol-5-yl]oxy-2-fluoro-benzoic acid]	6.57	93	> 2.5	
O=C(Nc1ncc(Oc2cccc(CO)c2)s1)C(OC1CCOCC1)c1ccc(S(=O)(=O)C2CC2)cc1 (single isomer, unassigned; (+)) [Example G20A, (+)2-(4-cyclopropylsulfonylphenyl)-N-[5-[3-(hydroxymethyl)phenoxy]thiazol-2-yl]-2-tetrahydro-pyran-4-yloxy-acetamide]	7.19	93	> 2.5	
O=C(O)c1cccc(Oc2cnc(NC(=O)C(O[C@@H]3CCOC3)c3ccc(S(=O)(=O)C4CC4)cc3)s2)c1 (single isomer, unassigned; (+)) [Example G21A]			> 2.5	
O=C(O)c1cccc(Oc2cnc(NC(=O)C(O[C@H]3CCOC3)c3ccc(S(=O)(=O)C4CC4)cc3)s2)c1 (single isomer, unassigned; (+)) [Example G25A]	6.70	95	> 2.5	
O=C(O)c1cccc(Oc2cnc(NC(=O)C(OC3CCOCC3)c3ccc(S(=O)(=O)C4CCCC4)cc3)s2)c1 (single isomer, unassigned; (+)) [Example G26A, (+)-3-[2-[[2-(4-cyclopentylsulfonylphenyl)-2-tetrahydropyran-4-yloxy-acetyl]amino]thiazol-5-yl]oxybenzoic acid]	6.74	94	> 2.5	
O=C(O)c1cccc(Oc2cnc(NC(=O)C(OC3CCOCC3)c3ccc(S(=O)(=O)C4CCCC4)nc3)s2)c1 (single isomer, unassigned; (+)) [Example G27A, (+)-3-[2-[[2-(6-cyclopentylsulfonyl-3-pyridyl)-2-tetrahydropyran-4-yloxy-acetyl]amino]thiazol-5-yl]oxybenzoic acid]	6.89	95	> 2.5	
O=C(O)c1ccc(NC(=O)C(Oc2ccc(F)cc2F)c2ccc(S(=O)(=O)C3CC3)cc2)nc1 (single isomer, unassigned; (-)) [Example G15A, (−)6-[[2-(4-cyclopropylsulfonylphenyl)-2-(2,4-difluorophenoxy)acetyl]amino]pyridine-3-carboxylic acid]	6.32	90	> 2.5	
O=C(O)c1cc(Oc2cnc(NC(=O)C(OC3CCOCC3)c3ccc(S(=O)(=O)C4CC4)cc3)s2)ccn1 (centres unmarked) [Example B-49, 4-[2-[[2-(4-cyclopropylsulfonylphenyl)-2-tetrahydropyran-4-yloxy-acetyl]amino]thiazol-5-yl]oxypyridine-2-carboxylic acid]	6.24	92		
O=C(O)c1ccc(NC(=O)C(Oc2ccc(Cl)cc2)c2ccc(S(=O)(=O)C3CC3)cc2)nc1 (centres unmarked) [Example B-58, 6-[[2-(4-chlorophenoxy)-2-(4-cyclopropylsulfonylphenyl)acetyl]amino]pyridine-3-carboxylic acid]	6.13	89		
O=C(NC1CC1)c1ccc(Oc2cnc(NC(=O)C(OC3CCOCC3)c3ccc(S(=O)(=O)C4CC4)cc3)s2)cc1 (centres unmarked) [Example C3, N-Cyclopropyl-4-[2-[[2-(4-cyclopropylsulfonylphenyl)-2-tetrahydropyran-4-yloxy-acetyl]amino]thiazol-5-yl]oxy-benzamide]	6.89	94		
O=C(Nc1ncc(Oc2cccc(CO)c2)s1)C(OC1CCOCC1)c1ccc(S(=O)(=O)C2CC2)cc1 (centres unmarked) [Example D3, 2-(4-cyclopropylsulfonylphenyl)-N-[5-[3-(hydroxymethyl)phenoxy]thiazol-2-yl]-2-tetrahydropyran-4-yloxy-acetamide]	6.85	92		
O=C(Nc1nc2ccc(C(O)CO)nc2s1)C(OC1CCOCC1)c1ccc(S(=O)(=O)C2CC2)cc1 (centres unmarked) [Example E2, 2-(4-Cyclopropanesulfonyl-phenyl)-N-[5-(1,2-dihydroxy-ethyl)-thiazolo[5,4-b]pyridin-2-yl]-2-(tetrahydro-pyran-4-yloxy)-acetamide]	5.82	93		
O=C(Nc1ncc(C(O)CO)s1)C(Oc1ccc(F)cc1F)c1ccc(S(=O)(=O)C2CC2)cc1 (centres unmarked) [Example E3, 2-(4-cyclopropylsulfonylphenyl)-2-(2,4-difluorophenoxy)-N-[5-(1,2-dihydroxyethyl)thiazol-2-yl]acetamide]	5.92	88		
O=C(Nc1ncc(F)s1)[C@H](CC1CCOCC1)c1ccc(S(=O)(=O)C2CC2)cc1 [PSN-GK1]				hypoglycemic potential
Ro-28-1675				cause hypoglycemia
